Read-outs that look alike come from different tables or passages of the source.
Assays:
[1] = biological target: T1, MeCP2-TBL1 interaction (MeCP2-SmBiT / TBL1-LgBiT) (Mus musculus, UniProt Q9QXE7); test: MeCP2-TBL1 NanoLuc luciferase complementation assay (cell-free, extracts of transfected HEK293 cells); type: binding, human; conditions: for IC50: dose response 0.3–60 μM, triplicate, 30 min, luminescence normalized to DMSO, read-out: IC50, inhibition of MeCP2-TBL1 luminescence signal; for Inh (MeCP2-TBL1): ApexBio FDA-approved Drug Library screen, 20 µM
T1 construct: expressed in transfected cells; crude lysate used as a cell-free assay
T1 sequence (Q9QXE7 166-527): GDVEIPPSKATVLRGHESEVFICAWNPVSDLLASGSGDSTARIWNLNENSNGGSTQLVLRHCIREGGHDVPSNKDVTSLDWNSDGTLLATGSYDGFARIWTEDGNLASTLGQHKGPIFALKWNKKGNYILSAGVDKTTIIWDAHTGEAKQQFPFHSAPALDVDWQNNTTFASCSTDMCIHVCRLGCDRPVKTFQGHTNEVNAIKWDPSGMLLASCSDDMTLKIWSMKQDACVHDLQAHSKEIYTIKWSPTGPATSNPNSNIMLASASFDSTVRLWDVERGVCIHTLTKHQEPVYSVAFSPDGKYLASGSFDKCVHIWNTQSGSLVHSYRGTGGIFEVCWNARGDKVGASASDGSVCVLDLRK
Outline: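 Cell-free split NanoLuc: lysate of HEK293 cells co-expressing the MeCP2 C-terminal half-SmBiT and TBL1 WD domain-LgBiT, mixed 1:1 with furimazine. After 30 min at room temperature, luminescence was plate-median normalized.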

[2] = test system: PRKACA-PRKAR2A interaction (SmBiT-PRKACA / LgBiT-PRKAR2A), protein kinase A; test: PKA-based NanoLuc complementation control assay (counter-screen); type: binding, human; set-up: Inh (PKA): unit not given here; conditions: 20 µM; for Inh (PKA): ApexBio FDA-approved Drug Library screen
Source text: To distinguish such false positives from genuine inhibitors of the interaction between MeCP2 and TBL1/TBLR1, a control screen is essential, utilising the same NanoLuc SmBiT and LgBiT fragments, but with an unrelated protein interaction pair. The interaction between PRKACA and PRKAR2A, which are the catalytic and regulatory subunits of human protein kinase A (PKA) respectively, has previously been measured using a NanoLuc complementation assay. We tested this pair of interacting proteins for activity in a NanoLuc complementation assay under our conditions. […] We therefore selected the PKA-based NanoLuc complementation as a suitable control assay. The effects of the four compounds identified from the Asinex library were assessed in the control PKA-based NanoLuc assay.
The AgeI-NotI restriction fragment (encoding EGFP) was then replaced with a codon optimized SmBiT sequence to yield the MeCP2-SmBiT expression plasmid. […]
In the screens described here, the lysate obtained from a single 15 cm plate was used for 2.5 384-well assay plates. […] After 30 min incubation at room temperature, luminescence was measured on a Tecan M1000 multi-mode plate reader. Raw luminescence reads from each well on each plate were normalized to the median luminescence signal for that plate. […] After plate normalization the robust SSMD (SSMD*) was calculated as described elsewhere. […]
Assays were performed as described above except instead of a single concentration, a threefold serial dilution ranging from 60 to 0.03 μM was tested in triplicate for each of the compounds. Half-maximal inhibitory concentrations were calculated using global nonlinear regression by fitting the response data sets of all compounds simultaneously with a four-parameter logistic curve of log inhibitor concentration versus normalized luminescence using GraphPad Prism. […] The luminescence signal of each compound concentration was normalized by dividing the luminescence signal of the DMSO control.

[3] = test system: PRKACA-PRKAR2A interaction (SmBiT-PRKACA / LgBiT-PRKAR2A), protein kinase A; set-up: NanoLuc complementation counter-screen in cell extract, PRKACA with PRKAR2A, loss of luminescence, detects NanoLuc interference; conditions: counter-screen for NanoLuc interference; 0.5 h, 20 µM; inhibitor
Description: In the screens described here, the lysate obtained from a single 15 cm plate was used for 2.5 384-well assay plates. NanoLuc substrate (furimazine) (Promega, N1110) was diluted 1000-fold in passive lysis buffer (Promega, E1941) and added 1:1 to the lysate. Screening libraries were purchased from Asinex[40] and ApexBio (FDA-approved Drug Library, L1021). Compounds were dispensed using an Echo acoustic dispenser and tested at a final concentration of 20 µM in a total assay volume of 20 μl in 384-well plate format. DMSO was added to each well at a final concentration of 0.2% (v/v) and wells containing only DMSO were used as negative control. After 30 min incubation at room temperature, luminescence was measured on a Tecan M1000 multi-mode plate reader. Raw luminescence reads from each well on each plate were normalized to the median luminescence signal for that plate. […] After plate normalization the robust SSMD (SSMD*) was calculated as described elsewhere. […] The interaction between PRKACA and PRKAR2A, which are the catalytic and regulatory subunits of human protein kinase A (PKA) respectively, has previously been measured using a NanoLuc complementation assay. […] The effects of the four compounds identified from the Asinex library were assessed in the control PKA-based NanoLuc assay. […]

TBLR1 = biological target: T2, TBLR1 (Homo sapiens, UniProt Q9BZK7); test: MeCP2 peptide SPOT array probed with recombinant HIS6-tagged TBLR1; type: binding; conditions: recombinant HIS6-tagged TBLR1 2 µM
T2 sequence (Q9BZK7 1-514): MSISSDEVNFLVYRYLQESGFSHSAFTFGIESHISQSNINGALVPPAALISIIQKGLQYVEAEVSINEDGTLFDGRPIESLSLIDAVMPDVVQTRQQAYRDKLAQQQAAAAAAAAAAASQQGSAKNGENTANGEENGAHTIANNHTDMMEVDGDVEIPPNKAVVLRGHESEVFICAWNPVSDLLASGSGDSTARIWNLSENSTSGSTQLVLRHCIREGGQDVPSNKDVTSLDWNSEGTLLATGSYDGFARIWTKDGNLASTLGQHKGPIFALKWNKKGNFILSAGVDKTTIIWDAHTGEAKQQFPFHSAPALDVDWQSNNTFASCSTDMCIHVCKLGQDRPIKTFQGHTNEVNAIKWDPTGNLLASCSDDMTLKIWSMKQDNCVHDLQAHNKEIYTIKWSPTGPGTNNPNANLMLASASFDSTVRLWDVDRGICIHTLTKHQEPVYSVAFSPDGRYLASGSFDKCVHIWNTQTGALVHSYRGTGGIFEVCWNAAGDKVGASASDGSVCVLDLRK
Description: The Z-factor is a statistic frequently used to assess the suitability of an assay for high throughput screening. We calculated the Z-factor of our assay in 384-well plate format using a short 12 residue MeCP2 NID derived-peptide variant as positive control and DMSO as negative control.
Western blotting was performed using antibodies against NanoLuc (Promega), MeCP2 (Sigma, M6818) and Sin3A (Abcam, Ab3479). […] The biotin at the N-terminus of these peptides was not relevant to the experiments in this work. […] The array membrane was incubated with recombinant HIS6‐tagged TBLR1 (2 µM) and immunodetection was performed with anti-HIS antibody (Sigma, H1029). Uniform synthesis efficiency across the array was ascertained by UV absorption. […] Note the shorter N-terminus and longer C-terminus of this peptide compared to the sequences used on the SPOT array. UMT026-2 was used at 50 µM when calculating the Z-factor[39].
The wild-type amino acids at these positions (Pro, Ile, Lys and Lys) make directs contacts with TBLR1. Arrows denote spots with increased binding and red dots indicate the wild-type amino acid.

C[C@H]1CC[C@H]2[C@H](O1)c1cc(OCC(=O)NCc3ccccc3)ccc1OC2(C)C [BDG 34039627]
extent of MeCP2-TBL1 inhibition reached within the tested concentration range ([1]; 0.3–60 μM): able to return the luminesce signal back to baseline
separation between MeCP2-TBL1 inhibition and inhibition of the PKA control in dose response ([1]; 0.3–60 μM, PKA-based assay run in parallel): clear separation
IC50 [1]: 18 µM
effect on luminescence in PKA control assay ([2]; n = 3): did not cause a reduction in luminescence

Oc1ccc(Nc2nc(-c3ccc(Cl)cc3)cs2)cc1 [SKI II, reference compound]
Inh (MeCP2-TBL1) [1]: 10.5772
Inh (PKA) [2]: 14.6502

C=C1C(=O)O[C@@H]2[C@H]3O[C@]3(C)CC/C=C(\C)CC[C@@H]12 [UM0142841:01, Parthenolide]
Inh (PKA) [3]: 0.7412%

COc1ccc(/C(Cl)=C(/C=O)c2ccc(OC)cc2)cc1 [Windorphen, reference compound]
Inh (MeCP2-TBL1) [1]: 12.6933
Inh (PKA) [2]: 33.916

Ac-ETVLPIYKRKTR-NH2 [K304Y mutant peptide]
IC50 [1]: ~40 µM
TBL1/TBLR1 binding on peptide SPOT array relative to wild type (TBLR1): stronger TBL1/TBLR1 binder

— publication PMC9995496, “A screen for MeCP2-TBL1 interaction inhibitors using a luminescence-based assay” (Scientific Reports, 2023)
